In patent US20210205413A1 (Nektar Therapeutics, priority 2018, published 2021):

Test system: NK cells
Assay: Single-dose PK/PD study in mice: NK cells
Assay type: in vivo, C57BL/6 mice
Settings: single SC 0.3 mg/kg (highest dose), relative to vehicle control
Source text: Following administration, blood and spleen samples are collected at days 1-7 and day 10 post administration. More particularly, at each time point, blood and spleen samples are collected; samples are pooled and assessed for pharmacodynamic analysis of drug action on lymphocyte cell populations by flow cytometry (see e.g. Example 5), expressed as a fold change relative to vehicle control. In addition to changes in cell numbers, functional markers and markers of activity are quantified. Finally, plasma drug concentration is also assessed.

(1,3-bis(methoxypoly(ethylene glycol)10kDcarbamoyl)-2-propanoxy)-4-butanamide)interleukin-2) [RUR20kD-IL-2]
increase in NK cells: less than 2 fold
